{"source": "patent US8003595B2", "about": "“Amino acid sequences facilitating penetration of a substance of interest into cells and/or cell nuclei” (Cellectis, priority 2000, dated 2011)", "molecules": {"B1": {"name": "natural RNase A: bovine Ribonuclease A, unconjugated (protein)", "chain": "KETAAAKFERQHMDSSTSAASSSNYCNQMMKSRNLTKDRCKPVNTFVHESLADVQAVCSQKNVACKNGQTNCYQSYSTMSITDCRETGSSKYPNCAYKTTQANKHIIVACEGNPYVPVHFDASV"}, "B2": {"name": "Peroxidase (PO): peroxidase transported by the transporter [peptide-IgG anti-PO] (protein)", "chain": "QLTPTFYDNSCPNVSNIVRDTIVNELRSDPRIAASILRLHFHDCFVNGCDASILLDNTTSFRTEKDAFGNANSARGFPVIDRMKAAVESACPRTVSCADLLTIAAQQSVTLAGGPSWRVPLGRRDSLQAFLDLANANLPAPFFTLPQLKDSFRNVGLNRSSDLVALSGGHTFGKNQCRFIMDRLYNFSNTGLPDPTLNTTYLQTLRGLCPLNGNLSALVDFDLRTPTIFDNKYYVNLEEQKGLIQSDQELFSSPNATDTIPLVRSFANSTQTFFNAFVEAMDRMGNITPLTGTQGQIRLNCRVVNSNS"}, "B3": {"name": "Biotinylated PO: biotinylated peroxidase transported by the transporter [peptide-IgG anti-PO] (protein)", "chain": "B2 chain"}}, "key": {"[1]": {"assay": "ELISA fixation of biotinylated peptides on sensitized plates", "format": "binding", "conditions": "read-out: avidity (Kd), quantity of peptides necessary to obtain 50% fixation, Chondroitin C; Table 5"}, "[2]": {"test_system": "HeLa", "assay": "Internalization of covalent peptide-peroxidase conjugates", "format": "cell-based, human", "conditions": "Table 9, 0.2 μg/ml conjugate, 2 hours", "protocol": "(§1) To evaluate more directly the penetration of the peptides, avoiding the avidin-peroxidase bias, some of the peptides in sequences SEQ ID NO: 25 to 48 were conjugated covalently with cysteine in the C-terminal position of the peptide to peroxidase. The peptides were coupled with peroxidase in the following way:\n(§2) One mg of peroxidase activated with maleimide (Sigma) in 100 μl of sodium phosphate buffer, NaCl 0.15 M, EDTA 5 mM, had 1 mg of peptide added to it. After 2 hours at laboratory temperature, β-mercaptoethanol is added to a final concentration of 1.5 mM for 15 minutes. The uncoupled peptide is eliminated by centrifugation on ultrafiltration membranes (cut-off threshold=30,000 Daltons, Sartorius), followed by three washings in sodium phosphate buffer 0.1 M, pH 7.4 containing 0.15 M NaCl.\n(§3) It appears that the higher the concentration of peptide-peroxidase conjugate in the culture medium, the more the quantity internalized increases. To compare the penetration of the conjugates by cell type, the cells from different lines were incubated with 0.2 μg/ml of peptide-peroxidase conjugate for 2 hours, and the quantity of peroxidase dosed in the lysates. Table 9 and Table 9B below give the results expressed in pg/10^3 cells. The quantity of each peptide internalized in the different lines generally varies only from single to double."}, "[3]": {"assay": "ELISA fixation of biotinylated peptides on sensitized plates", "format": "binding", "conditions": "read-out: avidity (Kd), quantity of peptides necessary to obtain 50% fixation, Chondroitin B; Table 5"}, "[4]": {"assay": "ELISA fixation of biotinylated peptides on sensitized plates", "format": "binding", "conditions": "read-out: avidity (Kd), quantity of peptides necessary to obtain 50% fixation, Heparin; Table 5", "protocol": "The capacity of peptides SEQ ID NO: 1 to 21 to attach themselves to DNA and heparin is evaluated on ELISA plates sensitized with DNA or heparin. Dilutions of biotinylated peptides are deposited on the plates and their fixation is shown using streptavidin conjugated with peroxidase. […] The avidity of each of the peptides for DNA or heparin is evaluated by the quantity (×10^−6 M) of peptides necessary to obtain 50% fixation."}, "[5]": {"test_system": "3T3 cells", "assay": "Heparin inhibition of internalization of peptide-peroxidase conjugates", "format": "cell-based, mouse", "protocol": "(§4) a) Heparin (50 μg/ml) was incubated with the cells for 1 hour before adding the peptide-peroxidase conjugates at 0.2 μg/ml for 2 hours. The cells were then lysed and the peroxidase dosed.\n(§5) The quantity of heparin necessary to inhibit 50% penetration of the peptides coupled to peroxidase was evaluated with these two types of cells, by incubating the cells with the peptide-peroxidase conjugates with increasing concentrations of heparin. The results of inhibiting internalization of the peptides are expressed as the heparin concentration (μg/ml) in Table 2 below."}, "[6]": {"test_system": "H1299 cells", "assay": "Internalization of biotinylated peptide/S-PO complexes", "format": "cell-based, human", "conditions": "peptide: S-PO complexes of 4:1, peptide concentration of 1 μg", "how_it_was_run": "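Biotinylated peptides precomplexed 15 min with streptavidin- or avidin-peroxidase at 25:1 or 4:1 peptide:conjugate molar ratio in PBS, diluted in complete medium and incubated with H1299 cells for 4 h. After washing and lysis, internalised peroxidase quantified with ortho-dianisidine/H2O2 at 450 nm against an S-PO standard curve, as pg per 10^4 cells.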"}, "[7]": {"assay": "ELISA fixation of biotinylated peptides on sensitized plates", "format": "binding", "conditions": "read-out: avidity (Kd), quantity of peptides necessary to obtain 50% fixation, Chondroitin A; Table 5"}, "[8]": {"test_system": "H1299 cells", "assay": "Internalization of covalent peptide-peroxidase conjugates", "format": "cell-based, human", "conditions": "Table 9; H1299; 0.2 μg/ml conjugate, 2 hours", "how_it_was_run": "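Peptides coupled via C-terminal cysteine to maleimide-activated peroxidase; uncoupled peptide removed by ultrafiltration. H1299 cells incubated 2 h with increasing conjugate concentrations, washed, lysed; internalized peptide quantified from lysate peroxidase against a conjugate standard curve, as pg/10^3 cells.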"}, "[9]": {"test_system": "HeLa cells", "assay": "Heparin inhibition of internalization of peptide-peroxidase conjugates", "format": "cell-based, human", "protocol": "as §4, §5"}, "[10]": {"test_system": "3T3", "assay": "Internalization of covalent peptide-peroxidase conjugates", "format": "cell-based, mouse", "conditions": "Table 9, 0.2 μg/ml conjugate, 2 hours", "protocol": "as §1, §2, §3"}, "[11]": {"test_system": "H1299 cells", "assay": "Growth inhibition by peptide-cytochrome C conjugates (MTT)", "format": "cell-based, human", "protocol": "(§6) H1299 or HT29 cells (3×10^4 cells/well) are cultivated in 96-well plates for 48 hours at 37° C. in the complete culture medium RPMI with decreasing concentrations (200-3 μg/ml) of natural cytochrome C or cytochrome C conjugated with peptides added, and the culture is continued for 48 hours.\n(§7) Table 25 gives the inhibition of growth of the cells by the […]."}, "[12]": {"test_system": "HT29 cells", "assay": "Growth inhibition by peptide-cytochrome C conjugates (MTT)", "format": "cell-based, human", "protocol": "as §6, §7"}, "[13]": {"test_system": "H1299 cells", "assay": "Penetration of peptide-cytochrome C conjugates (microscopy)", "format": "cell-based, human", "design": "key: +++: intense; ++: positive; +: slightly positive; −: negative", "conditions": "4 hours", "protocol": "The penetration of the peptide-cytochrome C conjugates is evaluated with some conjugates prepared with peptides having a biotin on the N-terminal side. H1299 cells are cultivated in the presence of the different (biotinylated) peptide-cytochrome C conjugates at decreasing concentrations (100 to 25 μg/ml) in the culture medium for 4 hours at 37° C. At the end of the culture, the cells are washed three times with PBS, then fixed 15 minutes in ethanol at −20°. The penetration of the peptide-biotin-cytochrome C conjugate is evaluated after incubation for 60 minutes with some avidin coupled with peroxidase. The cells are then washed with PBS, and the activity of the peroxidase is indicated by diaminobenzidine in the presence of H2O2.\nThe penetration dependent on the concentration of conjugates in the culture medium is evaluated under the microscope by the intensity of the coloration expressed by crosses. Table 24 indicates the penetration of the peptide-cytochrome C conjugates in the cells."}, "[14]": {"test_system": "HH9 tumors", "design": "species or system nude mice", "conditions": "mouse, in vivo", "protocol": "The nude mice received subcutaneous transplants of HH9 tumor cells as described above. On day 9 after the transplant, the mice received twice a week, by peritumoral injection, 100 μg of RNase, or 65 μg of peptide (HBP3)2 or 65 μg of peptide (HBP3)2+100 μg of RNase, or 100 μg of peptide conjugate (HBP3)2-RNase or HBP6-RNase conjugate. On day 26, the mice were killed and their tumors weighed."}, "[15]": {"test_system": "HH9 cells", "procedure": "The cells are sown at night on plates with 96 wells, at the rate of 10^3 cells per well.\nThe next day, the supernatant is suctioned off and replaced with 100 μl of medium containing succession dilutions of RNase A-vector or natural RNase A and the culture continued for 72 hours.\nThe wells are then filled with 50 μl of a solution of MTT (3-(4,5-dimethylthiazol-2-yl)-2,5-diphenyl tetrazolium bromide) at 1 mg/ml in the culture medium and cultivated for 4 hours.\nThe supernatant is removed, and 100 μl of dimethylsulfoxide is added to the wells. After the crystals dissolve, the coloration is read at 550 nm.\nThe results are calculated as a percentage of the average optic density obtained in the wells of cells containing the dilutions of the samples being tested and the optical density of the wells that received only medium.\nThe different peptide-RNase conjugates were tested on varied cell lines."}, "[16]": {"test_system": "HeLa cells", "assay": "Penetration of RNase A transported by peptide-F(ab′)2 anti-RNase transporter", "format": "cell-based, human", "procedure": "Two mg of antibody F(ab′)2 anti-RNase in 1 ml of potassium phosphate buffer 0.1 M pH 7.4 are added to 110 μg of SMCC [succinimidyl 4-(N-maleimidomethyl)cyclohexane-1-carboxylate] in 11 μl of dimethylsulfoxide. The solution is incubated for 45 minutes at laboratory temperature. The excess reagent is eliminated by centrifugation on ultrafiltration membranes (cutoff threshold=10,000 Da, Vivascience), followed by three washings in sodium phosphate buffer 10 mM, pH 7 containing 01.5 M of NaCl and 5 mM of EDTA. The coupling with the peptide is then done in a molar ratio of 6 peptides to 1 F(ab′)2 in the sodium phosphate buffer 10 mM, pH 7, containing 0.5 M of NaCl and 5 mM of EDTA for three hours at laboratory temperature. Then, the excess uncoupled peptide is totally eliminated by centrifugation on ultrafiltration membranes, as in the preceding step. These transporters [anti-RNase peptide-F(ab′)2)] are added to ribonuclease A in some complete culture medium, and the solution is incubated for 1 hour at laboratory temperature. The molar ratio of this reaction is 2 RNase/1 F(ab′)2. […]\nTo measure the quantity of RNase A internalized, the cells are trypsinized, transferred into microtubes and counted. […]"}, "[17]": {"test_system": "HeLa cells", "assay": "Penetration of peroxidase transported by peptide-IgG anti-PO transporter", "format": "cell-based, human", "conditions": "via the transporter [peptide-IgG anti-PO]", "protocol": "Two mg of specific monoclonal IgG antibody of peroxidase or their fragment F(ab′)2 in 1 ml of potassium phosphate buffer 0.1 M, pH 7.4 are added to 110 μg of SMCC [succinimidyl 4-(N-maleimidomethyl)cyclohexane-1-carboxylate] in 11 μl of dimethylsulfoxide. The solution is incubated for 45 minutes at laboratory temperature. The excess reagent is eliminated by centrifugation on ultrafiltration membranes (cutoff threshold =10,000 Da, Vivascience), followed by three washings in sodium phosphate buffer 10 mM, pH 7 containing 0.5 M of NaCl and 5 mM of EDTA.\nThe peptide is then coupled in a molar ratio of 6 peptides to 1 IgG or 1 F(ab′)2 in the sodium phosphate buffer 10 mM, pH 7, containing 0.5 M of NaCl and 5 mM of EDTA for three hours at laboratory temperature. Then, the excess uncoupled peptide is totally eliminated by centrifugation on ultrafiltration membranes, as in the preceding step. These transporters [peptide-IgG anti-PO] are added to the peroxidase or the biotinylated peroxidase in some 0.5 M NaCl buffer. The solution is incubated for 1 hour at laboratory temperature. The molar ratio of this reaction is 2 PO/1 IgG or F(ab′)2. […]\nTo measure the quantity of PO internalized, the cells are trypsinized, transferred into microtubes and counted. […]"}}, "note": "Like-named read-outs stand apart in the source and are kept apart here. Marks after values point to notes of the source that are not given here. Where no end group is shown, it is not given here."}
{"molecule": "GRPRESGKKRKRKRLKP [SEQ ID NO: 21]", "values": [{"measurement": "Kd", "setting": "[1]", "value": 12, "unit": "nM"}, {"measurement": "Internalization of Peptide-peroxidase", "setting": "[2]", "value": 13.2, "unit": "pg/10^3 cells"}, {"measurement": "Kd", "setting": "[3]", "value": 110, "unit": "nM"}, {"measurement": "Kd", "setting": "[4]", "value": 16, "unit": "nM"}, {"measurement": "heparin concentration necessary to inhibit 50% penetration of the peptides coupled to peroxidase", "setting": "[5]", "value": 4.1, "unit": "µg/mL"}, {"measurement": "S-PO internalized", "setting": "[6]", "value": 1680, "unit": "pg/10^4 cells"}, {"measurement": "Kd", "setting": "[7]", "value": 135, "unit": "nM"}, {"measurement": "Internalization of Peptide-peroxidase", "setting": "[8]", "value": 21.9, "unit": "pg/10^3 cells"}, {"measurement": "heparin concentration necessary to inhibit 50% penetration of the peptides coupled to peroxidase", "setting": "[9]", "value": 2.3, "unit": "µg/mL"}, {"measurement": "Internalization of Peptide-peroxidase", "setting": "[10]", "value": 83.7, "unit": "pg/10^3 cells"}]}
{"molecule": "Natural cytochrome C: hemoprotein, single polypeptide chain of 104 amino acids", "values": [{"measurement": "% inhibition of growth", "setting": "[11]; 3 μg/ml", "value": 0, "unit": "%"}, {"measurement": "% inhibition of growth", "setting": "[11]; 6 μg/ml", "value": 0, "unit": "%"}, {"measurement": "% inhibition of growth", "setting": "[11]; 12.5 μg/ml", "value": 0, "unit": "%"}, {"measurement": "% inhibition of growth", "setting": "[11]; 25 μg/ml", "value": 0, "unit": "%"}, {"measurement": "% inhibition of growth", "setting": "[11]; 50 μg/ml", "value": 0, "unit": "%"}, {"measurement": "% inhibition of growth", "setting": "[11]; 100 μg/ml", "value": "0* %"}, {"measurement": "% inhibition of growth", "setting": "[12]; 12.5 μg/ml", "value": 0, "unit": "%"}, {"measurement": "% inhibition of growth", "setting": "[12]; 25 μg/ml", "value": 0, "unit": "%"}, {"measurement": "% inhibition of growth", "setting": "[12]; 50 μg/ml", "value": 10, "unit": "%"}, {"measurement": "% inhibition of growth", "setting": "[12]; 100 μg/ml", "value": 19, "unit": "%"}, {"measurement": "% inhibition of growth", "setting": "[12]; 200 μg/ml", "value": "12* %"}, {"measurement": "penetration, intensity of the coloration", "setting": "[13]; 25 μg/ml", "value": "−"}, {"measurement": "penetration, intensity of the coloration", "setting": "[13]; 50 μg/ml", "value": "−"}, {"measurement": "penetration, intensity of the coloration", "setting": "[13]; 100 μg/ml", "value": "−*"}]}
{"molecule": "SERKKRRRESRKKRRRES [SEQ ID NO: 26]", "values": [{"measurement": "Inhibition of the growth of the tumors", "setting": "[14]", "value": 10, "unit": "%"}]}
{"molecule": "B1", "values": [{"measurement": "cytotoxic activity", "setting": "[15]", "value": "no cytotoxic activity"}, {"measurement": "Quantity of RNase internalized", "setting": "[16]", "value": 0, "unit": "pg/10^4 cells"}]}
{"molecule": "B2", "values": [{"measurement": "Quantity of molecules internalized", "setting": "[17]", "value": 2100, "unit": "pg/10^4 cells"}]}
{"molecule": "B3", "values": [{"measurement": "Quantity of molecules internalized", "setting": "[17]", "value": 1700, "unit": "pg/10^4 cells"}]}
